Test: xn = mol fraction of the nth substance listed
Conditions: Liquid

CCCCO [butan-1-ol] + O=C=O
Conditions | mass density [kg/m3]
313.1 K, 1008 kPa, x2 = 0.0251 | 798.08
313.1 K, 2011 kPa, x2 = 0.0251 | 798.9
313.1 K, 3006 kPa, x2 = 0.0251 | 799.7
313.1 K, 4012 kPa, x2 = 0.0251 | 800.54
313.1 K, 5008 kPa, x2 = 0.0251 | 801.32
313.1 K, 6013 kPa, x2 = 0.0251 | 802.14
313.1 K, 7004 kPa, x2 = 0.0251 | 802.94
313.1 K, 8023 kPa, x2 = 0.0251 | 803.75
313.1 K, 9037 kPa, x2 = 0.0251 | 804.53
313.1 K, 9990 kPa, x2 = 0.9698 | 711.97
313.1 K, 10005 kPa, x2 = 0.0251 | 805.29
313.1 K, 11011 kPa, x2 = 0.0251 | 806.08
313.1 K, 11014 kPa, x2 = 0.9698 | 740.16
313.1 K, 12018 kPa, x2 = 0.0251 | 806.83
313.1 K, 12040 kPa, x2 = 0.9698 | 761.46
313.1 K, 12987 kPa, x2 = 0.9698 | 777.57
313.1 K, 13003 kPa, x2 = 0.0251 | 807.56
313.1 K, 14007 kPa, x2 = 0.0251 | 808.31
313.1 K, 14020 kPa, x2 = 0.9698 | 792.52
313.1 K, 15009 kPa, x2 = 0.0251 | 809.03
313.1 K, 15028 kPa, x2 = 0.9698 | 805.22
313.1 K, 16004 kPa, x2 = 0.0251 | 809.77
313.1 K, 16029 kPa, x2 = 0.9698 | 816.46
313.1 K, 17000 kPa, x2 = 0.9698 | 826.34
313.1 K, 17005 kPa, x2 = 0.0251 | 810.49
313.1 K, 18019 kPa, x2 = 0.0251 | 811.19
313.1 K, 18024 kPa, x2 = 0.9698 | 835.89
313.1 K, 19019 kPa, x2 = 0.0251 | 811.89
313.1 K, 19027 kPa, x2 = 0.9698 | 844.46
313.1 K, 20020 kPa, x2 = 0.0251 | 812.59
313.1 K, 20021 kPa, x2 = 0.9698 | 852.41
313.1 K, 21013 kPa, x2 = 0.9698 | 859.87
313.1 K, 21027 kPa, x2 = 0.0251 | 813.29
313.1 K, 22005 kPa, x2 = 0.0251 | 813.97
313.1 K, 22032 kPa, x2 = 0.9698 | 867.02
313.1 K, 23006 kPa, x2 = 0.9698 | 873.5
313.1 K, 23011 kPa, x2 = 0.0251 | 814.69
313.1 K, 24004 kPa, x2 = 0.0251 | 815.36
313.1 K, 24011 kPa, x2 = 0.9698 | 879.83
313.1 K, 25028 kPa, x2 = 0.0251 | 816.1
313.11 K, 1990 kPa, x2 = 0.0857 | 802.76
313.11 K, 3001 kPa, x2 = 0.0857 | 803.63
313.11 K, 4009 kPa, x2 = 0.0857 | 804.54
313.11 K, 5013 kPa, x2 = 0.0857 | 805.41
313.11 K, 6014 kPa, x2 = 0.0857 | 806.27
313.11 K, 7009 kPa, x2 = 0.0857 | 807.15
313.11 K, 8011 kPa, x2 = 0.0857 | 807.98
313.11 K, 9009 kPa, x2 = 0.0857 | 808.79
313.11 K, 10011 kPa, x2 = 0.0857 | 809.65
313.11 K, 10994 kPa, x2 = 0.0857 | 810.46
313.11 K, 12007 kPa, x2 = 0.0857 | 811.26
313.11 K, 13022 kPa, x2 = 0.0857 | 812.06
313.11 K, 13999 kPa, x2 = 0.0857 | 812.83
313.11 K, 15014 kPa, x2 = 0.0857 | 813.63
313.11 K, 16013 kPa, x2 = 0.0857 | 814.38
313.11 K, 16994 kPa, x2 = 0.0857 | 815.12
313.11 K, 18005 kPa, x2 = 0.0857 | 815.89
313.11 K, 19008 kPa, x2 = 0.0857 | 816.61
313.11 K, 20010 kPa, x2 = 0.0857 | 817.4
313.11 K, 20990 kPa, x2 = 0.0857 | 818.09
313.11 K, 22028 kPa, x2 = 0.0857 | 818.85
313.11 K, 22900 kPa, x2 = 0.0857 | 819.47
313.11 K, 23996 kPa, x2 = 0.0857 | 820.3
313.11 K, 25047 kPa, x2 = 0.0857 | 821.11
313.15 K, 9101 kPa, x2 = 0.4972 | 830.36
313.15 K, 10085 kPa, x2 = 0.4972 | 831.83
313.15 K, 11056 kPa, x2 = 0.4972 | 833.28
313.15 K, 12062 kPa, x2 = 0.4972 | 834.75
313.15 K, 13043 kPa, x2 = 0.4972 | 836.14
313.15 K, 14050 kPa, x2 = 0.4972 | 837.54
313.15 K, 15053 kPa, x2 = 0.4972 | 838.9
313.15 K, 16037 kPa, x2 = 0.4972 | 840.22
313.15 K, 17055 kPa, x2 = 0.4972 | 841.56
313.15 K, 18037 kPa, x2 = 0.4972 | 842.85
313.15 K, 19023 kPa, x2 = 0.4972 | 844.11
313.15 K, 20041 kPa, x2 = 0.4972 | 845.39
313.15 K, 21003 kPa, x2 = 0.4972 | 846.61
313.15 K, 22068 kPa, x2 = 0.4972 | 847.91
313.15 K, 23079 kPa, x2 = 0.4972 | 849.14
313.15 K, 24016 kPa, x2 = 0.4972 | 850.27
313.15 K, 25033 kPa, x2 = 0.4972 | 851.48
313.16 K, 10073 kPa, x2 = 0.5965 | 836.7
313.16 K, 10087 kPa, x2 = 0.8663 | 805.12
313.16 K, 11059 kPa, x2 = 0.5965 | 838.66
313.16 K, 11082 kPa, x2 = 0.8663 | 813.86
313.16 K, 12061 kPa, x2 = 0.8663 | 821.6
313.16 K, 12075 kPa, x2 = 0.5965 | 840.6
313.16 K, 13043 kPa, x2 = 0.8663 | 828.71
313.16 K, 13069 kPa, x2 = 0.5965 | 842.49
313.16 K, 14076 kPa, x2 = 0.8663 | 835.52
313.16 K, 14098 kPa, x2 = 0.5965 | 844.39
313.16 K, 15059 kPa, x2 = 0.5965 | 846.11
313.16 K, 15061 kPa, x2 = 0.8663 | 841.57
313.16 K, 16037 kPa, x2 = 0.5965 | 847.81
313.16 K, 16043 kPa, x2 = 0.8663 | 847.15
313.16 K, 17032 kPa, x2 = 0.5965 | 849.52
313.16 K, 17052 kPa, x2 = 0.8663 | 852.59
313.16 K, 18048 kPa, x2 = 0.5965 | 851.21
313.16 K, 18056 kPa, x2 = 0.8663 | 857.69
313.16 K, 19039 kPa, x2 = 0.8663 | 862.42
313.16 K, 19055 kPa, x2 = 0.5965 | 852.88
313.16 K, 20027 kPa, x2 = 0.8663 | 866.99
313.16 K, 20044 kPa, x2 = 0.5965 | 854.46
313.16 K, 21042 kPa, x2 = 0.5965 | 856.04
313.16 K, 21068 kPa, x2 = 0.8663 | 871.52
313.16 K, 22034 kPa, x2 = 0.8663 | 875.6
313.16 K, 22053 kPa, x2 = 0.5965 | 857.62
313.16 K, 23031 kPa, x2 = 0.5965 | 859.12
313.16 K, 23061 kPa, x2 = 0.8663 | 879.74
313.16 K, 24038 kPa, x2 = 0.5965 | 860.62
313.16 K, 24054 kPa, x2 = 0.8663 | 883.63
313.16 K, 25015 kPa, x2 = 0.8663 | 887.21
313.16 K, 25036 kPa, x2 = 0.5965 | 862.12
323.05 K, 1017 kPa, x2 = 0.0251 | 789.88
323.05 K, 2015 kPa, x2 = 0.0251 | 790.73
323.05 K, 3003 kPa, x2 = 0.0251 | 791.59
323.05 K, 4007 kPa, x2 = 0.0251 | 792.48
323.05 K, 5026 kPa, x2 = 0.0251 | 793.33
323.05 K, 5975 kPa, x2 = 0.0251 | 794.14
323.05 K, 7085 kPa, x2 = 0.0251 | 795.08
323.05 K, 7991 kPa, x2 = 0.0251 | 795.85
323.05 K, 9003 kPa, x2 = 0.0251 | 796.68
323.05 K, 10032 kPa, x2 = 0.0251 | 797.56
323.05 K, 10996 kPa, x2 = 0.0251 | 798.32
323.05 K, 11029 kPa, x2 = 0.9698 | 630.03
323.05 K, 12005 kPa, x2 = 0.9698 | 671.01
323.05 K, 12028 kPa, x2 = 0.0251 | 799.15
323.05 K, 12996 kPa, x2 = 0.9698 | 700.08
323.05 K, 13030 kPa, x2 = 0.0251 | 799.93
323.05 K, 14024 kPa, x2 = 0.9698 | 723.36
323.05 K, 14030 kPa, x2 = 0.0251 | 800.72
323.05 K, 15018 kPa, x2 = 0.0251 | 801.45
323.05 K, 15024 kPa, x2 = 0.9698 | 741.89
323.05 K, 16009 kPa, x2 = 0.9698 | 757.4
323.05 K, 16017 kPa, x2 = 0.0251 | 802.24
323.05 K, 17001 kPa, x2 = 0.9698 | 771.14
323.05 K, 17014 kPa, x2 = 0.0251 | 802.97
323.05 K, 18016 kPa, x2 = 0.9698 | 783.62
323.05 K, 18025 kPa, x2 = 0.0251 | 803.71
323.05 K, 19020 kPa, x2 = 0.9698 | 794.82
323.05 K, 19034 kPa, x2 = 0.0251 | 804.49
323.05 K, 20048 kPa, x2 = 0.9698 | 805.21
323.05 K, 20052 kPa, x2 = 0.0251 | 805.21
323.05 K, 21014 kPa, x2 = 0.0251 | 805.95
323.05 K, 21055 kPa, x2 = 0.9698 | 814.54
323.05 K, 22017 kPa, x2 = 0.9698 | 822.92
323.05 K, 22027 kPa, x2 = 0.0251 | 806.68
323.05 K, 23002 kPa, x2 = 0.0251 | 807.38
323.05 K, 23087 kPa, x2 = 0.9698 | 831.58
323.05 K, 24035 kPa, x2 = 0.0251 | 808.13
323.05 K, 24055 kPa, x2 = 0.9698 | 838.92
323.05 K, 25023 kPa, x2 = 0.0251 | 808.84
323.07 K, 1981 kPa, x2 = 0.0857 | 794.04
323.07 K, 3013 kPa, x2 = 0.0857 | 795.05
323.07 K, 4009 kPa, x2 = 0.0857 | 795.99
323.07 K, 5021 kPa, x2 = 0.0857 | 796.91
323.07 K, 6010 kPa, x2 = 0.0857 | 797.83
323.07 K, 6995 kPa, x2 = 0.0857 | 798.74
323.07 K, 7985 kPa, x2 = 0.0857 | 799.59
323.07 K, 9047 kPa, x2 = 0.0857 | 800.55
323.07 K, 10028 kPa, x2 = 0.0857 | 801.4
323.07 K, 11003 kPa, x2 = 0.0857 | 802.22
323.07 K, 12005 kPa, x2 = 0.0857 | 803.07
323.07 K, 12995 kPa, x2 = 0.0857 | 803.91
323.07 K, 14273 kPa, x2 = 0.0857 | 805.01
323.07 K, 15019 kPa, x2 = 0.0857 | 805.58
323.07 K, 15998 kPa, x2 = 0.0857 | 806.41

Source: the NIST ThermoML archive (doi:10.1021/je700261b)
